In BindingDB's records for doi:10.1021/jm950640q (Sankyo, 1997) one finds IC50 data, which are given here for eleven compounds.

For orientation: IC50 means the concentration that inhibits the measured activity by half. A low value points to greater potency in that assay.

This assay in a line: Inhibiting Platelet activating factor receptor by radioreceptor binding assay using rabbit platelets and [3H]-PAF.

On to `C/C1=C\CC[C@@]2(C)O[C@@H]2C(=O)[C@@H]2CC[C@@H](C)[C@](C)(CC1)[C@H]2C=O` [(E)-(1R,3S,5R,12S,13R,16S)-5,9,12,13-Tetramethyl-2-oxo-4-oxa-tricyclo[10.3.1.0*3,5*]hexadec-8-ene-16-carbaldehyde], for which the half-inhibitory concentration (IC50) worked out at 120 nM. In other words, the sub-micromolar range.
For `C/C1=C\CC[C@@]2(C)O[C@@H]2C(=O)[C@@H]2CC[C@@H](C)[C@](C)(CC1)[C@H]2COc1ccon1` [(E)-(1R,3S,5R,12S,13R,16S)-16-(Isoxazol-3-yloxymethyl)-5,9,12,13-tetramethyl-4-oxa-tricyclo[10.3.1.0*3,5*]hexadec-8-en-2-one] the value was 50 nM.
In the case of `C/C1=C\CC[C@@]2(C)O[C@@H]2C(=O)[C@@H]2CC[C@@H](C)[C@](C)(CC1)[C@H]2CO` [(E)-(1R,3S,5R,12S,13R,16S)-16-Hydroxymethyl-5,9,12,13-tetramethyl-4-oxa-tricyclo[10.3.1.0*3,5*]hexadec-8-en-2-one], the IC50 is 1300 nM.
In turn, `CC(=O)OC[C@H]1[C@H]2CC[C@@H](C)[C@]1(C)CC/C(C)=C/CC[C@@]1(C)O[C@@H]1[C@@H]2O` [Acetic acid (E)-(1R,2R,3R,5R,12S,13R,16S)-2-hydroxy-5,9,12,13-tetramethyl-4-oxa-tricyclo[10.3.1.0*3,5*]hexadec-8-en-16-ylmethyl ester] showed an IC50 of 80 nM.
The figure for `CC(=O)OC[C@H]1[C@H]2CC[C@@H](C)[C@]1(C)CC/C(C)=C/CC[C@@]1(C)O[C@@H]1C2=O` [Acetic acid (E)-(1R,3S,5R,12S,13R,16S)-5,9,12,13-tetramethyl-2-oxo-4-oxa-tricyclo[10.3.1.0*3,5*]hexadec-8-en-16-ylmethyl ester] is 410 nM; for `COC(=O)OC[C@H]1[C@H]2CC[C@@H](C)[C@]1(C)CC/C(C)=C/CC[C@@]1(C)O[C@@H]1[C@@H]2O` [Carbonic acid (E)-(1R,2R,3R,5R,12S,13R,16S)-2-hydroxy-5,9,12,13-tetramethyl-4-oxa-tricyclo[10.3.1.0*3,5*]hexadec-8-en-16-ylmethyl ester methyl ester] it is 130 nM.
The figure for `COC(=O)OC[C@H]1[C@H]2CC[C@@H](C)[C@]1(C)CC/C(C)=C/CC[C@@]1(C)O[C@@H]1C2=O` [Carbonic acid methyl ester (E)-(1R,3S,5R,12S,13R,16S)-5,9,12,13-tetramethyl-2-oxo-4-oxa-tricyclo[10.3.1.0*3,5*]hexadec-8-en-16-ylmethyl ester] is 26 nM; for `C/C1=C\CC[C@@]2(C)O[C@@H]2C(=O)[C@@H]2CC[C@@H](C)[C@](C)(CC1)[C@H]2COC(=O)Oc1ccccc1` [Carbonic acid phenyl ester (E)-(1R,3S,5R,12S,13R,16S)-5,9,12,13-tetramethyl-2-oxo-4-oxa-tricyclo[10.3.1.0*3,5*]hexadec-8-en-16-ylmethyl ester] it is 550 nM.
The figure for `C/C1=C\CC[C@@]2(C)O[C@@H]2[C@H](O)[C@@H]2CC[C@@H](C)[C@](C)(CC1)[C@H]2COC(=O)N(C)C` [Dimethyl-carbamic acid (E)-(1R,2R,3R,5R,12S,13R,16S)-2-hydroxy-5,9,12,13-tetramethyl-4-oxa-tricyclo[10.3.1.0*3,5*]hexadec-8-en-16-ylmethyl ester] is 180 nM; for `C/C1=C\CC[C@@]2(C)O[C@@H]2C(=O)[C@@H]2CC[C@@H](C)[C@](C)(CC1)[C@H]2COC(=O)N(C)C` [Dimethyl-carbamic acid (E)-(1R,3S,5R,12S,13R,16S)-5,9,12,13-tetramethyl-2-oxo-4-oxa-tricyclo[10.3.1.0*3,5*]hexadec-8-en-16-ylmethyl ester] it is 180 nM.
As to `CCC(=O)OC[C@H]1[C@H]2CC[C@@H](C)[C@]1(C)CC/C(C)=C/CC[C@@]1(C)O[C@@H]1[C@@H]2O` [Propionic acid (E)-(1R,2R,3R,5R,12S,13R,16S)-2-hydroxy-5,9,12,13-tetramethyl-4-oxa-tricyclo[10.3.1.0*3,5*]hexadec-8-en-16-ylmethyl ester], the IC50 amounted to 340 nM.
